Experimental data reported in patent US7615651B2, “Diaryl, dipyridinyl and aryl-pyridinyl derivatives and uses thereof” (Pfizer Inc., priority 2006, dated 2009).
Where two headings read alike, the source gives them in different places. One block for each molecule: values may come before it.

Columns and labels:
Assay type in all cases: biochemical
opioid receptor delta = biological target: T1, opioid receptor delta (Homo sapiens, UniProt P41143); experiment: GTPγ[35S] binding assay, antagonism of BW-373U86
T1 construct: expressed in transfected cells
T1 sequence (P41143 whole entry): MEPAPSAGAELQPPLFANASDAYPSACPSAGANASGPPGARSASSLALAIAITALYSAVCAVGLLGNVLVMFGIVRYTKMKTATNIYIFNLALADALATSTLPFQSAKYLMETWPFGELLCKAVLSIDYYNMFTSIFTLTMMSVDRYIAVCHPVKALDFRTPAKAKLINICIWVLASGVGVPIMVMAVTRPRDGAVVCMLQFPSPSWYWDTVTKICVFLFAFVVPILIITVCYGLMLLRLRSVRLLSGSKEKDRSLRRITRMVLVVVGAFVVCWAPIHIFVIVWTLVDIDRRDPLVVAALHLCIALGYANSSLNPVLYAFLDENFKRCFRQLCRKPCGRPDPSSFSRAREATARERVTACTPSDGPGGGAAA
Method: (§1) Membranes were prepared from cells as described (Bass et al, 1996). GTPγ[5S] binding assays were performed in a 96 well FlashPlate™ format in duplicate using […] GTPγ[^35S] and 5 μg membrane per well in assay buffer composed of 50 mM Tris HCl, pH 7.4, 5 mM MgCl2, 1 mM EDTA, 100 mM NaCl, 30 μM GDP, 0.1% bovine serum albumin and the following protease inhibitors: 100 μg/ml bacitracin, 100 μg/ml benzamidine, 5 μg/ml aprotinin, 5 μg/ml leupeptin. The assay mix was then incubated at 30° C. with increasing concentrations of antagonist (10^−10 M to 10^−5 M) for 10 minutes and challenged with the agonists BW-373U86 (1 nM), dynorphin-A (10 nM), […] (1 μM) for opioid receptors delta, kappa, and mu, respectively. The assays were performed at 30° C. for one hour. The FlashPlates were then centrifuged at 2000×g for 10 minutes. Stimulation of GTPγ[^35S] binding was then quantified using a Wallac Microbeta and Ki calculations were done using Prism™ by Graphpad.

opioid receptor kappa = biological target: T2, opioid receptor kappa (Homo sapiens, UniProt P41145); experiment: GTPγ[35S] binding assay, antagonism of dynorphin-A
T2 construct: expressed in transfected cells
T2 sequence (P41145 whole entry): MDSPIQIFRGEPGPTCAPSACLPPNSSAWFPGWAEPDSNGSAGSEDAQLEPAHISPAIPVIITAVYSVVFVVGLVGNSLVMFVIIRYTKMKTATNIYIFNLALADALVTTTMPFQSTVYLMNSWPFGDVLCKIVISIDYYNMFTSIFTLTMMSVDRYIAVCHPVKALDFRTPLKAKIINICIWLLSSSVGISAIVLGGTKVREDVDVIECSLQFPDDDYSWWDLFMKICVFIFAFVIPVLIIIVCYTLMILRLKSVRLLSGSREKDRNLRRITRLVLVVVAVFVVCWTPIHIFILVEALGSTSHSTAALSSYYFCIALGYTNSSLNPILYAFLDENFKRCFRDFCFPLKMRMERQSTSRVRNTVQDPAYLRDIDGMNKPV
Method: as §1

opioid receptor mu = biological target: T3, opioid receptor mu (Homo sapiens, UniProt P35372); experiment: GTPγ[35S] binding assay, antagonism of endorphin
T3 construct: expressed in transfected cells
T3 sequence (P35372 whole entry): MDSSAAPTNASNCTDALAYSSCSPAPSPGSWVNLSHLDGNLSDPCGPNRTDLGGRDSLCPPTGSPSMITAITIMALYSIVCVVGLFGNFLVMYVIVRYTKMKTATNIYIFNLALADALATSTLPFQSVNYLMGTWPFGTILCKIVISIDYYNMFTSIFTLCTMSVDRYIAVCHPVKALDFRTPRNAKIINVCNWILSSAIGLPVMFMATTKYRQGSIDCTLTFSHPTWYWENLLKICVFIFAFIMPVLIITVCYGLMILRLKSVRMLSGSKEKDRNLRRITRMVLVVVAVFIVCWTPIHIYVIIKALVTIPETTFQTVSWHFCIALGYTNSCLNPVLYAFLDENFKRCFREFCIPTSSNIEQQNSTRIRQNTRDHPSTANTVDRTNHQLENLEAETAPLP
Method: as §1

[1] = read-out: Delta functional (GTPγ[35S] binding Ki)
[2] = read-out: Kappa functional (GTPγ[35S] binding Ki)
[3] = read-out: Mu functional (GTPγ[35S] binding Ki)
[4] = read-out: Delta functional Ki (GTPγ[35S] binding)
[5] = read-out: Kappa functional Ki (GTPγ[35S] binding)
[6] = read-out: Mu functional Ki (GTPγ[35S] binding)
[7] = average Ki, antagonism of dynorphin-A (10 nM) at kappa opioid receptor membranes, read-out: Kappa functional Ki (GTPγ[35S] binding)
[8] = average Ki, antagonism of endorphin (1 μM) at mu opioid receptor membranes, read-out: Mu functional Ki (GTPγ[35S] binding)
[9] = average Ki, antagonism of BW-373U86 (1 nM) stimulated GTPγ[35S] binding, delta opioid receptor membranes, read-out: Delta functional (GTPγ[35S] binding Ki)
[10] = average Ki, antagonism of dynorphin-A (10 nM) stimulated GTPγ[35S] binding, kappa opioid receptor membranes, read-out: Kappa functional (GTPγ[35S] binding Ki)
[11] = average Ki, antagonism of endorphin (1 μM) stimulated GTPγ[35S] binding, mu opioid receptor membranes, read-out: Mu functional (GTPγ[35S] binding Ki)

SMILES: Cc1cc(C(N)=O)ccc1-c1ccc(CNC(C)c2ccc3ccccc3c2)cc1 (stereo not drawn) [4B-27]
Ki (opioid receptor delta; [1]): 2.98 nM | Ki (opioid receptor kappa; [2]): 2.86 nM | Ki (opioid receptor mu; [3]): 14.3 nM

SMILES: Cc1cc(C(N)=O)ccc1-c1ccc(CN[C@@H](C)c2ccccc2)cc1 [4B-42]
Ki (opioid receptor delta; [4]): 22.2 nM | Ki (opioid receptor kappa; [5]): 6.19 nM | Ki (opioid receptor mu; [6]): 65.4 nM

SMILES: Cc1cc(CNC2Cc3ccccc3C2)cc(Cl)c1-c1ccc(C(N)=O)cc1Cl [4B-82]
Ki (opioid receptor delta; [4]): 0.15 nM | Ki (opioid receptor kappa; [5]): 1.77 nM | Ki (opioid receptor mu; [6]): 0.0287 nM

SMILES: Cc1cc(C(N)=O)ccc1-c1ccc(CNCCC2CC2)cc1 [4B-11]
Ki (opioid receptor delta; [1]): 7.05 nM | Ki (opioid receptor kappa; [2]): 5.7 nM | Ki (opioid receptor mu; [3]): 8.38 nM

SMILES: Cc1cc(C(N)=O)ccc1-c1cc(F)c(CN[C@H](C)c2ccccn2)c(F)c1 [4B-53]
Ki (opioid receptor delta; [4]): 3.74 nM | Ki (opioid receptor kappa; [5]): 43.1 nM | Ki (opioid receptor mu; [6]): 92.7 nM

SMILES: NC(=O)c1ccc(-c2ccc(CNC[C@H]3CCCO3)cc2Cl)c(Cl)c1 [4B-78]
Ki (opioid receptor delta; [4]): 18.8 nM | Ki (opioid receptor kappa; [5]): 8.48 nM | Ki (opioid receptor mu; [6]): 35.1 nM

SMILES: CC(C)CCNCc1ccc(-c2cccc(-c3ncn[nH]3)c2)c(Cl)c1 [7A-04]
Ki (opioid receptor kappa; [7]): 0.794 nM | Ki (opioid receptor mu; [8]): 0.162 nM

SMILES: CCc1cc(C(N)=O)ccc1-c1ccc(CNC2Cc3ccccc3C2)cc1C [4B-77]
Ki (opioid receptor delta; [4]): 0.271 nM | Ki (opioid receptor kappa; [5]): 0.949 nM | Ki (opioid receptor mu; [6]): 0.114 nM

SMILES: Cc1cc(CNCCC(C)C)ccc1-c1cccc(C(N)=O)c1 [1A-01]
Ki (opioid receptor kappa; [10]): 11.5 nM | Ki (opioid receptor mu; [11]): 1.49 nM

SMILES: CC(C)CCNCc1ccc(-c2ccc(C(N)=O)cc2Cl)c(Cl)c1 [4B-66]
Ki (opioid receptor delta; [4]): 7.52 nM | Ki (opioid receptor kappa; [5]): 2.52 nM | Ki (opioid receptor mu; [6]): 7.83 nM

SMILES: Cc1cc(C(N)=O)ccc1-c1ccc(CNCc2ccccn2)cc1 [4B-44]
Ki (opioid receptor delta; [4]): 26.1 nM | Ki (opioid receptor kappa; [5]): 25.7 nM | Ki (opioid receptor mu; [6]): 61.7 nM

SMILES: Cc1cc(C(N)=O)ccc1-c1c(F)cc(CNC2Cc3ccccc3C2)cc1F [1B-04]
Ki (opioid receptor delta; [1]): 5.28 nM | Ki (opioid receptor kappa; [2]): 20.1 nM | Ki (opioid receptor mu; [3]): 2.66 nM

SMILES: Cc1cc(C(N)=O)ccc1-c1ccc(CNC2CCc3ccccc32)cc1 (stereo not drawn) [4B-21]
Ki (opioid receptor delta; [1]): 1.25 nM | Ki (opioid receptor kappa; [2]): 0.872 nM | Ki (opioid receptor mu; [3]): 1.5 nM

SMILES: NC(=O)c1ccc(-c2cc(F)c(CNCCC3CCOCC3)c(F)c2)c(Cl)c1 [4B-57]
Ki (opioid receptor delta; [4]): 168 nM | Ki (opioid receptor kappa; [5]): 4.58 nM | Ki (opioid receptor mu; [6]): 12.7 nM

Second part, the molecule after the results:

Ki (opioid receptor delta; average Ki, antagonism of BW-373U86 (1 nM) at delta opioid receptor, read-out: Delta functional Ki (GTPγ[35S] binding)): 18.4 nM | Ki (opioid receptor kappa; average Ki, antagonism of dynorphin-A (10 nM) at kappa opioid receptor, read-out: Kappa functional Ki (GTPγ[35S] binding)): 13.7 nM | Ki (opioid receptor mu; average Ki, antagonism of endorphin (1 μM) at mu opioid receptor, read-out: Mu functional Ki (GTPγ[35S] binding)): 1.16 nM
SMILES: CC(C)CCNCc1ccc(-c2cccc(NS(C)(=O)=O)c2)c(C#N)c1 [8A-03]

Ki (opioid receptor delta; [1]): 6.62 nM | Ki (opioid receptor kappa; [2]): 12.4 nM | Ki (opioid receptor mu; [3]): 0.843 nM
SMILES: NC(=O)c1ccc(F)c(-c2cc(F)c(CNC3Cc4ccccc4C3)c(F)c2)c1 [1A-11]

Ki (opioid receptor kappa; [7]): 4.61 nM | Ki (opioid receptor mu; [8]): 2.06 nM
SMILES: CC(C)CCNCc1cc(F)c(-c2cccc(-c3ncn[nH]3)c2)c(F)c1 [7A-06]

Ki (opioid receptor delta; [4]): 12.6 nM | Ki (opioid receptor kappa; [5]): 4.92 nM | Ki (opioid receptor mu; [6]): 25.6 nM
SMILES: CC(C)CCNCc1ccc(-c2ccc(C(N)=O)cc2Cl)c(F)c1 [4B-61]

Ki (opioid receptor delta; [1]): 0.893 nM | Ki (opioid receptor kappa; [2]): 3.39 nM | Ki (opioid receptor mu; [3]): 4.07 nM
SMILES: Cc1cc(C(N)=O)ccc1-c1ccc(CNCCC2CCOCC2)cc1 [4B-05]

Ki (opioid receptor delta; [4]): 0.0895 nM | Ki (opioid receptor kappa; [5]): 0.366 nM | Ki (opioid receptor mu; [6]): 0.0272 nM
SMILES: COc1cc(-c2ccc(C(N)=O)cc2C)ccc1CNC1Cc2ccccc2C1 [4B-89]

Ki (opioid receptor delta; [4]): 8.08 nM | Ki (opioid receptor kappa; [5]): 13.6 nM | Ki (opioid receptor mu; [6]): 2.53 nM
SMILES: CC(C)CCNCc1ccc(-c2ccc(-c3ncn[nH]3)cc2)c(F)c1 [7B-04]

Ki (opioid receptor delta; [9]): 1.55 nM | Ki (opioid receptor kappa; [10]): 724 nM | Ki (opioid receptor mu; [11]): 44800 nM
SMILES: CC(C)CCNCc1ccc(-c2ccc(F)c(C(N)=O)c2)cc1 [4A-02]

Ki (opioid receptor delta; [4]): 0.612 nM | Ki (opioid receptor kappa; [5]): 1.28 nM | Ki (opioid receptor mu; [6]): 1.87 nM
SMILES: NC(=O)c1ccc(-c2ccc(CNCCC3CCCC3)cc2)c(Cl)c1 [4B-39]

Ki (opioid receptor delta; [4]): 0.135 nM | Ki (opioid receptor kappa; [5]): 0.318 nM | Ki (opioid receptor mu; [6]): 0.0298 nM
SMILES: Cc1cc(CNC2Cc3ccccc3C2)ccc1-c1ccc(C(N)=O)cc1C [4B-73]

Ki (opioid receptor delta; [9]): 9.3 nM | Ki (opioid receptor kappa; [10]): 8.99 nM | Ki (opioid receptor mu; [11]): 1.43 nM
SMILES: Cc1cc(CNCCC(C)C)ccc1-c1ncc(C(N)=O)cc1C [1D-07]

Ki (opioid receptor delta; average Ki, antagonism of BW-373U86 (1 nM) at delta opioid receptor membranes, read-out: Delta functional Ki (GTPγ[35S] binding)): 24.5 nM | Ki (opioid receptor kappa; [7]): 9.01 nM | Ki (opioid receptor mu; [8]): 2.22 nM
SMILES: Cc1cc(C(N)=O)ccc1-c1c(C)cc(CNCC2CCCO2)cc1Cl (stereo not drawn) [4B-91]
